Reference: ChEMBL document CHEMBL5325488, “Discovery of SMD-3040 as a Potent and Selective SMARCA2 PROTAC Degrader with Strong in vivo Antitumor Activity” (J Med Chem, 2023)

Assays:
Type in all cases: cell-based
[1] = biological target: T1, von Hippel-Lindau disease tumor suppressor/SWI/SNF-related matrix-associated actin-dependent regulator of chromatin subfamily A member 4 (Homo sapiens, UniProt P51532+P40337); assay: PROTAC activity at VHL/C-terminal HiBiT fused SMARCA4 in human HeLa cells assessed as induction of SMARCA4 degradation by measuring maximal efficacy incubated for 24 hrs by Nano-Glo HiBiT analysis relative to control
Target sequence in this assay (P40337 whole entry, looked up, the tested form may be a part): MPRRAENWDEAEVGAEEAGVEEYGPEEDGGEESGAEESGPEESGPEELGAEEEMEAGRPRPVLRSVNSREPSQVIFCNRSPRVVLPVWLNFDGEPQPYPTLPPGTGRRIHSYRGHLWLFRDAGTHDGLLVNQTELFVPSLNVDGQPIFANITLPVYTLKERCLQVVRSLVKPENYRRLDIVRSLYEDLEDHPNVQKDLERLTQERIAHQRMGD
Target sequence in this assay (P51532 whole entry, looked up, the tested form may be a part): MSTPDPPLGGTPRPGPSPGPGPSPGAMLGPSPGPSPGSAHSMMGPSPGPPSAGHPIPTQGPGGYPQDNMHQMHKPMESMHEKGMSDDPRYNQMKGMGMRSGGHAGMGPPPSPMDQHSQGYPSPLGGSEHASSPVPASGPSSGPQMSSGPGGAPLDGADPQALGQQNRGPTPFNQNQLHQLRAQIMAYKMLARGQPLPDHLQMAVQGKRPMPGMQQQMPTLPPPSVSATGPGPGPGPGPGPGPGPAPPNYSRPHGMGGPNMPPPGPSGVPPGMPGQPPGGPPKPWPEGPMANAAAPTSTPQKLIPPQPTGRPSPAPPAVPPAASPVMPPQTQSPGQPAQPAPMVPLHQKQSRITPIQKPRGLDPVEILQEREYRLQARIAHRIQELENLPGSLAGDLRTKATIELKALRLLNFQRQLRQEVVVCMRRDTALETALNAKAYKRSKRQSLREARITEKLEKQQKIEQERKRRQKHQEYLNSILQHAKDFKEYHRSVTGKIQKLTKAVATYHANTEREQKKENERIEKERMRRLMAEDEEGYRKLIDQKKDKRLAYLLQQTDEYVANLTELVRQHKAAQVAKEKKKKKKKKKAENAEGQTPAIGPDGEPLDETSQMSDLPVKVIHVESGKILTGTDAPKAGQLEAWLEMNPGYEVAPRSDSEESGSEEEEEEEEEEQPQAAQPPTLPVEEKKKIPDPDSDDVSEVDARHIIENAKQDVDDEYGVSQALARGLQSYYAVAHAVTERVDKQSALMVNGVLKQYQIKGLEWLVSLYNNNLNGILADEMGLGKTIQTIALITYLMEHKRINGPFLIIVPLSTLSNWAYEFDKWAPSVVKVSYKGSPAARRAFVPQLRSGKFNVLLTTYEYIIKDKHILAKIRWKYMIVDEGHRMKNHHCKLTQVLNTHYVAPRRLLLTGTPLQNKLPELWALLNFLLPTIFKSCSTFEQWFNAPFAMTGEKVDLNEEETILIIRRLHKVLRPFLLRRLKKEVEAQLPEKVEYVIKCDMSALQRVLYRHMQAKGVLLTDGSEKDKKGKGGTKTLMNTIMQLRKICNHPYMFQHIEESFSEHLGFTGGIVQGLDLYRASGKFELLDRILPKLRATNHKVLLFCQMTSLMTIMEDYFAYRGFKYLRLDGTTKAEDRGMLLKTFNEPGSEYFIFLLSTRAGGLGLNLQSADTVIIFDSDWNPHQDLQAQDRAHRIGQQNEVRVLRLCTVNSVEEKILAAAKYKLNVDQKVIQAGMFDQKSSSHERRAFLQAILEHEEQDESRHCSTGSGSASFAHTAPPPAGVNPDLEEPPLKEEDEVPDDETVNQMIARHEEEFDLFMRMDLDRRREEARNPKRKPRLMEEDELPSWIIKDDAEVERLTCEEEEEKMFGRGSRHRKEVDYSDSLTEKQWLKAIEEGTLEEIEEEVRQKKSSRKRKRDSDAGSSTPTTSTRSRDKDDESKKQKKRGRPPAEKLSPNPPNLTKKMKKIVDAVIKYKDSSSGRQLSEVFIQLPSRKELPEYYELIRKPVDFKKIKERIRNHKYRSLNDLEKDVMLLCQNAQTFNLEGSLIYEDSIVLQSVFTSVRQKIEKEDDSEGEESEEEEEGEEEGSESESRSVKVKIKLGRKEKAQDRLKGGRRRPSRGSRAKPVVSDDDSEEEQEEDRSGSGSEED

[2] = biological target: T1, von Hippel-Lindau disease tumor suppressor/SWI/SNF-related matrix-associated actin-dependent regulator of chromatin subfamily A member 4; assay: PROTAC activity at VHL/C-terminal HiBiT fused SMARCA4 in human HeLa cells assessed as induction of SMARCA4 degradation incubated for 24 hrs by Nano-Glo HiBiT analysis
Target sequence in this assay (P51532 whole entry, the tested form may be a part): as the sequence (P51532 whole entry, looked up, the tested form may be a part) above
Target sequence in this assay (P40337 whole entry, the tested form may be a part): as the sequence (P40337 whole entry, looked up, the tested form may be a part) above

[3] = biological target: T2, von Hippel-Lindau disease tumor suppressor/SWI/SNF-related matrix-associated actin-dependent regulator of chromatin subfamily A member 2 (Homo sapiens, UniProt P51531+P40337); assay: PROTAC activity at VHL/C-terminal HiBiT fused SMARCA2 in human HeLa cells assessed as induction of SMARCA2 degradation incubated for 24 hrs by Nano-Glo HiBiT analysis
Target sequence in this assay (P51531 whole entry, the tested form may be a part): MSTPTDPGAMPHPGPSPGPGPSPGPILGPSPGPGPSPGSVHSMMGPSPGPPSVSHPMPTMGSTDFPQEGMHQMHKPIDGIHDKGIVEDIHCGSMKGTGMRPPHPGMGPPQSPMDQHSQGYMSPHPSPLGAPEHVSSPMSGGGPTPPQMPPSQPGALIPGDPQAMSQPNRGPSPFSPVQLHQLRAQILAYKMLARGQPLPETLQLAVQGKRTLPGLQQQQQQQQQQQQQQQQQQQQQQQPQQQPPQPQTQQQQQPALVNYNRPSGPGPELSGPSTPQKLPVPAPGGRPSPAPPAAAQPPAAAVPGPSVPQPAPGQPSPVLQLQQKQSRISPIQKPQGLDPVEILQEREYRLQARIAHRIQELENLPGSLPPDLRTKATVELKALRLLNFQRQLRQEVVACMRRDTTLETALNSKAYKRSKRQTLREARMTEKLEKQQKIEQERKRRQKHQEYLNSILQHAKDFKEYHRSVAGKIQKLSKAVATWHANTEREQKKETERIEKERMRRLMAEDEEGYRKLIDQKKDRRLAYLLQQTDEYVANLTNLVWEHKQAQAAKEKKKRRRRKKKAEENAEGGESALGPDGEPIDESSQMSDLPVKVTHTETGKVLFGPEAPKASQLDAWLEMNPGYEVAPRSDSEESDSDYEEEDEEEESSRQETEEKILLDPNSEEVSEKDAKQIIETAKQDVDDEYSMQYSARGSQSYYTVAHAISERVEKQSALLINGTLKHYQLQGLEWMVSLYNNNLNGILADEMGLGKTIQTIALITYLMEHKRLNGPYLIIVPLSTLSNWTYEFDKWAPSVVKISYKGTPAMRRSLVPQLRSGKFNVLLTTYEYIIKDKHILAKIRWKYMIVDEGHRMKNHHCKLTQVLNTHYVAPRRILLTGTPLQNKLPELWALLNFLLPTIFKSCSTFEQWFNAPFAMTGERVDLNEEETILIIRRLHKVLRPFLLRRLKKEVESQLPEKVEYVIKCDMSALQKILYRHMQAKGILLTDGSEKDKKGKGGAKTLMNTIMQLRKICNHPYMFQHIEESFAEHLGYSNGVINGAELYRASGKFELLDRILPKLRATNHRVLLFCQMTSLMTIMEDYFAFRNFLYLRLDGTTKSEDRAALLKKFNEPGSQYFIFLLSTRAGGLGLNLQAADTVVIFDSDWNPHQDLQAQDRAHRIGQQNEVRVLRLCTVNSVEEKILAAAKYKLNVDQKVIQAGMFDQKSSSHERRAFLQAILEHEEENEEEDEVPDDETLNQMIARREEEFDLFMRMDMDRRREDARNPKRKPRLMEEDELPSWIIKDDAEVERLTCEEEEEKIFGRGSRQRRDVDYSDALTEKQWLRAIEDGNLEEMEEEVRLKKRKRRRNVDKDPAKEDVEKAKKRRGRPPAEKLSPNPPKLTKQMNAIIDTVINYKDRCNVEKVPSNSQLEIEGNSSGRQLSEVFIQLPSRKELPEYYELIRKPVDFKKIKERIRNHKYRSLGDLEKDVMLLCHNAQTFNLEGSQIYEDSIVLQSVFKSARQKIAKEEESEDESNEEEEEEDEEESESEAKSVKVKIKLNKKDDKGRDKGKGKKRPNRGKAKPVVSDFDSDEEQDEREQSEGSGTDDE
Target sequence in this assay (P40337 whole entry, the tested form may be a part): as the sequence (P40337 whole entry, looked up, the tested form may be a part) above

[4] = biological target: T2, von Hippel-Lindau disease tumor suppressor/SWI/SNF-related matrix-associated actin-dependent regulator of chromatin subfamily A member 2; assay: PROTAC activity at VHL/C-terminal HiBiT fused SMARCA2 in human HeLa cells assessed as induction of SMARCA2 degradation by measuring maximal efficacy incubated for 24 hrs by Nano-Glo HiBiT analysis relative to control
Target sequence in this assay (P40337 whole entry, looked up, the tested form may be a part): as above
Target sequence in this assay (P51531 whole entry, looked up, the tested form may be a part): as the sequence (P51531 whole entry, the tested form may be a part) above

Row | Emax [1] | DC50 [2] | DC50 [3] | Emax [4] | Structure (SMILES)
1 | 72% | 315 nM | 34 nM | 90% | Cc1ncsc1-c1ccc([C@@H](C)NC(=O)[C@H]2C[C@H](O)CN2C(=O)[C@H](NC(=O)C2CCC(N3CCC4(CCC(n5cc(-c6cc(-c7ccccc7O)nnc6N)cn5)CC4)CC3)CC2)C(C)(C)C)cc1 (single isomer, unassigned)
2 | 55% | > 1000 nM | 25 nM | 85% | Cc1ncsc1-c1ccc([C@H](C)NC(=O)[C@@H]2C[C@@H](O)CN2C(=O)[C@@H](NC(=O)C2CCC(N3CC4(CCC(n5cc(-c6cc(-c7ccccc7O)nnc6N)cn5)CC4)C3)CC2)C(C)(C)C)cc1 (some centres not stated)
3 | 92% | 91 nM | 96 nM | 91% | Cc1cc([C@H](C(=O)N2C[C@H](O)C[C@H]2C(=O)N[C@@H](CC(=O)NCCCCCCCn2cc(-c3cc(-c4ccccc4O)nnc3N)cn2)c2ccc(-c3scnc3C)cc2)C(C)C)on1
4 | 59% | > 1000 nM | 313 nM | 77% | Cc1ncsc1-c1ccc([C@H](C)NC(=O)[C@@H]2C[C@@H](O)CN2C(=O)[C@@H](NC(=O)CCOCCOCCn2cc(-c3cc(-c4ccccc4O)nnc3N)cn2)C(C)C)cc1
5 | 90% | 23 nM | 3 nM | 95% | Cc1ncsc1-c1ccc([C@H](C)NC(=O)[C@@H]2C[C@@H](O)CN2C(=O)[C@@H](NC(=O)CCCCCCCn2cc(-c3cc(-c4ccccc4O)nnc3N)cn2)C(C)(C)C)cc1
6 | 0% | > 1000 nM | > 1000 nM | 12% | Cc1ncsc1-c1ccc([C@H](C)NC(=O)[C@@H]2C[C@@H](O)CN2C(=O)[C@@H](NC(=O)CCN2CCC(CCCn3cc(-c4cc(-c5ccccc5O)nnc4N)cn3)CC2)C(C)C)cc1
7 | 57% | > 1000 nM | 134 nM | 85% | Cc1ncsc1-c1ccc([C@H](C)NC(=O)[C@@H]2C[C@@H](O)CN2C(=O)[C@@H](NC(=O)CCCCn2cc(-c3cc(-c4ccccc4O)nnc3N)cn2)C(C)(C)C)cc1
8 | 96% | 13 nM | 3 nM | 95% | Cc1ncsc1-c1ccc([C@H](C)NC(=O)[C@@H]2C[C@@H](O)CN2C(=O)[C@@H](NC(=O)CCCCCCCCCCCn2cc(-c3cc(-c4ccccc4O)nnc3N)cn2)C(C)(C)C)cc1
9 | 87% | 47 nM | 6 nM | 93% | Cc1ncsc1-c1ccc([C@H](C)NC(=O)[C@@H]2C[C@@H](O)CN2C(=O)[C@@H](NC(=O)CCCCCCCCCCn2cc(-c3cc(-c4ccccc4O)nnc3N)cn2)C(C)(C)C)cc1
10 | 93% | 53 nM | 37 nM | 95% | Cc1cc([C@H](C(=O)N2C[C@H](O)C[C@H]2C(=O)N[C@@H](CC(=O)NCCCCCCCCCCn2cc(-c3cc(-c4ccccc4O)nnc3N)cn2)c2ccc(-c3scnc3C)cc2)C(C)C)on1
11 | 76% | 585 nM | 682 nM | 62% | Cc1ncsc1-c1ccc([C@H](C)NC(=O)[C@@H]2C[C@@H](O)CN2C(=O)[C@@H](NC(=O)CCN2CCN(CCCn3cc(-c4cc(-c5ccccc5O)nnc4N)cn3)CC2)C(C)C)cc1
12 | 89% | 90 nM | 46 nM | 93% | Cc1cc([C@H](C(=O)N2C[C@H](O)C[C@H]2C(=O)N[C@@H](CC(=O)NCCCCCCCCCCCCn2cc(-c3cc(-c4ccccc4O)nnc3N)cn2)c2ccc(-c3scnc3C)cc2)C(C)C)on1
13 | 47% | > 1000 nM | 455 nM | 71% | Cc1ncsc1-c1ccc([C@H](C)NC(=O)[C@@H]2C[C@@H](O)CN2C(=O)[C@@H](NC(=O)COCCOCCOCCn2cc(-c3cc(-c4ccccc4O)nnc3N)cn2)C(C)C)cc1
14 | 93% | 66 nM | 67 nM | 91% | Cc1cc([C@H](C(=O)N2C[C@H](O)C[C@H]2C(=O)N[C@@H](CC(=O)NCCCCCCCCn2cc(-c3cc(-c4ccccc4O)nnc3N)cn2)c2ccc(-c3scnc3C)cc2)C(C)C)on1
15 | 84% | 463 nM | 132 nM | 88% | Cc1ncsc1-c1ccc([C@H](C)NC(=O)[C@@H]2C[C@@H](O)CN2C(=O)[C@@H](NC(=O)CCCn2cc(-c3cc(-c4ccccc4O)nnc3N)cn2)C(C)(C)C)cc1
16 | 66% | 219 nM | 5 nM | 90% | Cc1ncsc1-c1ccc([C@H](C)NC(=O)[C@@H]2C[C@@H](O)CN2C(=O)[C@@H](NC(=O)[C@H]2CC[C@H](CN3CCC4(CCC(n5cc(-c6cc(-c7ccccc7O)nnc6N)cn5)CC4)CC3)CC2)C(C)(C)C)cc1
17 | 81% | 212 nM | 16 nM | 89% | Cc1ncsc1-c1ccc([C@H](C)NC(=O)[C@@H]2C[C@@H](O)CN2C(=O)[C@@H](NC(=O)CCCCCCn2cc(-c3cc(-c4ccccc4O)nnc3N)cn2)C(C)(C)C)cc1
18 | 93% | 31 nM | 3 nM | 95% | Cc1ncsc1-c1ccc([C@H](C)NC(=O)[C@@H]2C[C@@H](O)CN2C(=O)[C@@H](NC(=O)CCCCCCCCn2cc(-c3cc(-c4ccccc4O)nnc3N)cn2)C(C)(C)C)cc1
19 | 84% | 213 nM | 18 nM | 86% | Cc1cc([C@H](C(=O)N2C[C@H](O)C[C@H]2C(=O)N[C@@H](CC(=O)NCCCCCCn2cc(-c3cc(-c4ccccc4O)nnc3N)cn2)c2ccc(-c3scnc3C)cc2)C(C)C)on1
20 | 73% | > 1000 nM | 12 nM | 93% | Cc1ncsc1-c1ccc([C@H](C)NC(=O)[C@@H]2C[C@@H](O)CN2C(=O)[C@@H](NC(=O)CCCCCn2cc(-c3cc(-c4ccccc4O)nnc3N)cn2)C(C)(C)C)cc1
21 | 0% | > 1000 nM | > 1000 nM | 19% | Cc1ncsc1-c1ccc([C@H](C)NC(=O)[C@@H]2C[C@@H](O)CN2C(=O)[C@@H](NC(=O)CCn2cc(-c3cc(-c4ccccc4O)nnc3N)cn2)C(C)(C)C)cc1
22 | 77% | 248 nM | 6 nM | 94% | Cc1ncsc1-c1ccc([C@H](C)NC(=O)[C@@H]2C[C@@H](O)CN2C(=O)[C@@H](NC(=O)CCCCCN2CCC(n3cc(-c4cc(-c5ccccc5O)nnc4N)cn3)CC2)C(C)(C)C)cc1
23 | 94% | 75 nM | 71 nM | 94% | Cc1cc([C@H](C(=O)N2C[C@H](O)C[C@H]2C(=O)N[C@@H](CC(=O)NCCCCCCCCCn2cc(-c3cc(-c4ccccc4O)nnc3N)cn2)c2ccc(-c3scnc3C)cc2)C(C)C)on1
